# Values of other authors as cited in PMC5762609 (Journal of Pharmaceutical Analysis, 2016).
smiles,measurement,value
CC(=O)O[C@H]1C(=O)[C@]23C[C@H]2C[C@H]2OC[C@@]2(OC(C)=O)[C@H]3[C@H](OC(=O)c2ccccc2)[C@]2(O)C[C@H](OC(=O)[C@H](O)[C@@H](NC(=O)OC(C)(C)C)c3ccccc3)C(C)=C1C2(C)C [Larotaxel],Content in tissues,"higher in rich-blood tissues, such as heart, liver, spleen, lung and kidney"
same,Tissue distribution,distributed widely and rapidly
